According to patent US7345158B2, “Actin related cytoskeletal protein “LACS”” (Anges MG, Inc., priority 2002, dated 2008):
Positions of bridges follow the written chain, without caps; N, C: chain ends. No end group written: not given here.

What was measured:
[1] = tested on: LACS mRNA expression in cardiac tissues; experiment: LACS mRNA expression in cardiac tissues of L-NAME-administered WKY rats (Northern blotting); assay type: in vivo, rat; conditions: male WKY rats, oral L-NAME 100 mg/L
Description: RNAs were extracted from the hearts of a male WKY rat group that has been subjected to a one-week oral administration of L-NAME (100 mg/L), and from the hearts of a control group without L-NAME administration. […] As a result, a novel LACS (L-NAME related actin cytoskeletal protein) gene was successfully isolated. […] Furthermore, mRNA expression in tissues other than the heart was also analyzed by Northern blotting. […] Particularly with the heart, the expression of LACS mRNA was confirmed in the myocardial cells.

[2] = tested on: LACS mRNA expression in the heart; experiment: LACS mRNA expression in the hearts of AngII infusion rats; assay type: in vivo, rat; conditions: osmotic pump 0.7 mg/kg/day
Description: Cardiac tissues derived from AngII infusion rats (osmotic pump: 0.7 mg/kg/day), and SHRs of 4 weeks and 24 weeks, were used. ATIR antagonist (ARB) and hydrazine (Hyd) were used as antihypertensive agents. Each of the antihypertensive agents was used at an amount sufficient for lowering the blood pressure (10 mg/kg/day for ARB; 12 mg/kg/day for Hyd).

[3] = tested on: LACS expression in cultured myocardial cells; experiment: LACS protein expression in cultured myocardial cells under hypertrophic agonist stimulation; assay type: cell-based, rat; conditions: for LACS protein expression on hypertrophic agonist stimulation: primary cultured neonatal rat myocardial cells
Description: Primary cultures of myocardial cells isolated from neonatal rats (one- to three-day old) using trypsin and collagenase were prepared. For the first 24 to 48 hours, the cells were cultured in a serum-containing medium, and then for another 24 hours in a serum-free medium.
Myocardial cells cultured by the same method in Example 4 were used. First, cells were stimulated with the representative hypertrophic agonists, AngII, phenylephrine, and Endothelin-1.
LACS expression which increases upon phenylephrine stimulation was suppressed by the simultaneous administration of 10 μM of Y27632 (ROCK inhibitor; Calbiochem). […] Rho is a low-molecular-weight GTP-binding protein (small G protein) involved in the contraction of smooth muscles, and regulation of cytokinesis, cell motility, and cytomorphology, via reorganization of actin filaments.

Compound	LACS protein expression on hypertrophic agonist stimulation [3]	further results
COC(=O)[C@@H](N)CCCN=C(N)N[N+](=O)[O-].Cl [L-NAME, N^G-Nitro-L-arginine methyl ester, hydrochloride]		LACS mRNA expression level in cardiac tissues after L-NAME administration [1]: reaches its peak one to three days after L-NAME administration
angiotensin II (DRVYIHPF; Angiotensin-2; UniProt P01019 25-32, looked up) [AngII, representative hypertrophic agonist]	found to increase	LACS expression in the heart after AngII administration [2]: increased LACS expression after the third day
C[C@@H](N)[C@H]1CC[C@H](C(=O)Nc2ccncc2)CC1 [Y27632]		Effect on the LACS expression increased by phenylephrine stimulation ([3]; cultured myocardial cells, simultaneous administration of 10 μM): suppressed
Endothelin-1 (CSCSSLMDKECVYFCHLDIIW; disulfide 1-15, 3-11; ends not checked; UniProt P05305 53-73, looked up) [representative hypertrophic agonist]	found to increase	
CNC[C@H](O)c1cccc(O)c1 [phenylephrine]	found to increase	
